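1) Cells in 96-well plates. 2) Compound, 48 h, 5 concentrations. 3) Linear interpolation between surrounding doses. 4) Unreached endpoint = highest concentration. The concentration for full growth arrest is given as TGI.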 Some results are limits rather than exact numbers.

The first experiment relates to SF-539 CNS. Nature of the experiment: NCI tumour cell line growth inhibition, 48 h.
As for `NS(=O)(=O)c1cc2c(cc1Cl)NC(CCC(=O)O)=NS2(=O)=O`, the TGI is more than 100 µM.

Another experiment deals with SNB-75 CNS. Nature of the experiment: NCI tumour cell line growth inhibition, 48 h.
For `COc1cccc(CCCNC(=O)Cc2cc(OC)c(OC)cc2CO)c1`, the TGI is more than 100 µM.

Consider `COc1cc(C2c3cc4c(cc3OC(NN)C2C)OCO4)cc(OC)c1OC` (centres undefined), for which the TGI was more than 75.2 µM.

The compound `Cc1cccc2c1CC1(C2)Cc2c(C)cccc2C1=O` (centres undefined) came in with a TGI of 70.7 µM.

Compound `NS(=O)(=O)c1cc2c(cc1Cl)NC(CCC(=O)O)=NS2(=O)=O` yielded a TGI of more than 100 µM.

In the next experiment the test system is BT-549 breast. Nature of the experiment: NCI tumour cell line growth inhibition, 48 h.
`COc1cccc(CCCNC(=O)Cc2cc(OC)c(OC)cc2CO)c1` yielded a TGI of more than 100 µM.

As to `COc1cc(C2c3cc4c(cc3OC(NN)C2C)OCO4)cc(OC)c1OC` (centres undefined), the TGI was more than 100 µM.

`NS(=O)(=O)c1cc2c(cc1Cl)NC(CCC(=O)O)=NS2(=O)=O`: the TGI was more than 100 µM.

In the next experiment the test system is RXF 393 renal. Nature of the experiment: NCI tumour cell line growth inhibition, 48 h.
Turning to `COc1cc(C2c3cc4c(cc3OC(NN)C2C)OCO4)cc(OC)c1OC` (centres undefined), the TGI is more than 100 µM.

`Cc1cccc2c1CC1(C2)Cc2c(C)cccc2C1=O` (centres undefined) registered a TGI of 38.1 µM.

For the compound `NS(=O)(=O)c1cc2c(cc1Cl)NC(CCC(=O)O)=NS2(=O)=O`, the TGI is more than 100 µM.

Another experiment concerns HOP-92 NSCLC. Nature of the experiment: NCI tumour cell line growth inhibition, 48 h.
`COc1cccc(CCCNC(=O)Cc2cc(OC)c(OC)cc2CO)c1` came in with a TGI of more than 100 µM.

On to `COc1cc(C2c3cc4c(cc3OC(NN)C2C)OCO4)cc(OC)c1OC` (centres undefined), for which the TGI stood at 84.8 µM.

`Cc1cccc2c1CC1(C2)Cc2c(C)cccc2C1=O` (centres undefined): the TGI was 41.9 µM.

Consider `NS(=O)(=O)c1cc2c(cc1Cl)NC(CCC(=O)O)=NS2(=O)=O`, for which the TGI was more than 100 µM.

Another experiment relates to TK-10 renal. Nature of the experiment: NCI tumour cell line growth inhibition, 48 h.
`COc1cccc(CCCNC(=O)Cc2cc(OC)c(OC)cc2CO)c1`: the TGI was more than 100 µM.

As to `COc1cc(C2c3cc4c(cc3OC(NN)C2C)OCO4)cc(OC)c1OC` (centres undefined), the TGI was more than 100 µM.

For `Cc1cccc2c1CC1(C2)Cc2c(C)cccc2C1=O` (centres undefined), the TGI is 92.1 µM.

In turn, `NS(=O)(=O)c1cc2c(cc1Cl)NC(CCC(=O)O)=NS2(=O)=O` showed a TGI of more than 100 µM.

For a further experiment, the system named is KM12 colon. Nature of the experiment: NCI tumour cell line growth inhibition, 48 h.
`COc1cccc(CCCNC(=O)Cc2cc(OC)c(OC)cc2CO)c1` displayed a TGI of more than 100 µM.

As to `COc1cc(C2c3cc4c(cc3OC(NN)C2C)OCO4)cc(OC)c1OC` (centres undefined), the TGI is more than 100 µM.

`Cc1cccc2c1CC1(C2)Cc2c(C)cccc2C1=O` (centres undefined): the TGI was found to be 51.5 µM.

For the compound `NS(=O)(=O)c1cc2c(cc1Cl)NC(CCC(=O)O)=NS2(=O)=O`, the TGI was more than 100 µM.

The test system of a further experiment is NCI-H23 lung. Nature of the experiment: NCI tumour cell line growth inhibition, 48 h.
As to `COc1cccc(CCCNC(=O)Cc2cc(OC)c(OC)cc2CO)c1`, the TGI is more than 100 µM.

`COc1cc(C2c3cc4c(cc3OC(NN)C2C)OCO4)cc(OC)c1OC` (centres undefined): the TGI was more than 100 µM.

`Cc1cccc2c1CC1(C2)Cc2c(C)cccc2C1=O` (centres undefined) returned a TGI of more than 100 µM.

The compound `NS(=O)(=O)c1cc2c(cc1Cl)NC(CCC(=O)O)=NS2(=O)=O` yielded a TGI of more than 100 µM.

In a further experiment the test system is SK-MEL-2 melanoma. Nature of the experiment: NCI tumour cell line growth inhibition, 48 h.
As to `COc1cccc(CCCNC(=O)Cc2cc(OC)c(OC)cc2CO)c1`, the TGI was more than 100 µM.

As to `COc1cc(C2c3cc4c(cc3OC(NN)C2C)OCO4)cc(OC)c1OC` (centres undefined), the TGI was more than 100 µM.

For the compound `Cc1cccc2c1CC1(C2)Cc2c(C)cccc2C1=O` (centres undefined), the TGI came out at 38.3 µM.

Regarding `NS(=O)(=O)c1cc2c(cc1Cl)NC(CCC(=O)O)=NS2(=O)=O`, the TGI is more than 100 µM.

The subject of a further experiment is K-562 leukemia. Nature of the experiment: NCI tumour cell line growth inhibition, 48 h.
Compound `COc1cccc(CCCNC(=O)Cc2cc(OC)c(OC)cc2CO)c1` had a TGI of more than 100 µM.

On to `COc1cc(C2c3cc4c(cc3OC(NN)C2C)OCO4)cc(OC)c1OC` (centres undefined), for which the TGI was more than 31.1 µM.

In turn, `Cc1cccc2c1CC1(C2)Cc2c(C)cccc2C1=O` (centres undefined) gave a TGI of 70.3 µM.

The compound `NS(=O)(=O)c1cc2c(cc1Cl)NC(CCC(=O)O)=NS2(=O)=O` returned a TGI of more than 100 µM.

The test system of the next experiment is UACC-257 melanoma. The experiment in a line: NCI tumour cell line growth inhibition, 48 h.
`COc1cccc(CCCNC(=O)Cc2cc(OC)c(OC)cc2CO)c1` registered a TGI of more than 100 µM.

Take `COc1cc(C2c3cc4c(cc3OC(NN)C2C)OCO4)cc(OC)c1OC` (centres undefined): the TGI is more than 100 µM.

For `Cc1cccc2c1CC1(C2)Cc2c(C)cccc2C1=O` (centres undefined), the TGI came to 63.5 µM.

Regarding `NS(=O)(=O)c1cc2c(cc1Cl)NC(CCC(=O)O)=NS2(=O)=O`, the TGI is more than 100 µM.

The subject of another experiment is LOX IMVI melanoma. The experiment in a line: NCI tumour cell line growth inhibition, 48 h.
Regarding `COc1cccc(CCCNC(=O)Cc2cc(OC)c(OC)cc2CO)c1`, the TGI was more than 100 µM.

On to `COc1cc(C2c3cc4c(cc3OC(NN)C2C)OCO4)cc(OC)c1OC` (centres undefined), for which the TGI is more than 100 µM.

Compound `Cc1cccc2c1CC1(C2)Cc2c(C)cccc2C1=O` (centres undefined) showed a TGI of 38.7 µM.

In turn, `NS(=O)(=O)c1cc2c(cc1Cl)NC(CCC(=O)O)=NS2(=O)=O` returned a TGI of more than 100 µM.

The next experiment concerns NCI/ADR-RES ovarian. Nature of the experiment: NCI tumour cell line growth inhibition, 48 h.
`COc1cccc(CCCNC(=O)Cc2cc(OC)c(OC)cc2CO)c1` had a TGI of more than 100 µM.

`COc1cc(C2c3cc4c(cc3OC(NN)C2C)OCO4)cc(OC)c1OC` (centres undefined) displayed a TGI of more than 100 µM.

In the case of `Cc1cccc2c1CC1(C2)Cc2c(C)cccc2C1=O` (centres undefined), the TGI was more than 100 µM.

For the compound `NS(=O)(=O)c1cc2c(cc1Cl)NC(CCC(=O)O)=NS2(=O)=O`, the TGI was more than 100 µM.

Another experiment relates to A498 renal. The experiment in a line: NCI tumour cell line growth inhibition, 48 h.
Compound `COc1cccc(CCCNC(=O)Cc2cc(OC)c(OC)cc2CO)c1` registered a TGI of more than 100 µM.

Compound `COc1cc(C2c3cc4c(cc3OC(NN)C2C)OCO4)cc(OC)c1OC` (centres undefined) displayed a TGI of 0.709 µM.

`Cc1cccc2c1CC1(C2)Cc2c(C)cccc2C1=O` (centres undefined) gave a TGI of 88.9 µM.

`NS(=O)(=O)c1cc2c(cc1Cl)NC(CCC(=O)O)=NS2(=O)=O` yielded a TGI of more than 100 µM.

The next experiment concerns HL-60(TB) leukemia. Nature of the experiment: NCI tumour cell line growth inhibition, 48 h.
Consider `COc1cccc(CCCNC(=O)Cc2cc(OC)c(OC)cc2CO)c1`, for which the TGI was more than 100 µM.

In turn, `COc1cc(C2c3cc4c(cc3OC(NN)C2C)OCO4)cc(OC)c1OC` (centres undefined) came in with a TGI of 0.977 µM.

Regarding `Cc1cccc2c1CC1(C2)Cc2c(C)cccc2C1=O` (centres undefined), the TGI was found to be 52.6 µM.

Source of the values: PubChem BioAssay (NCI).
